The assay has as its system CEM cells HIV-1 protection, formazan growth assay. The assay can be described thus: NCI AIDS Antiviral Assay. The following applies: for IC50: measured here: growth of uninfected CEM cells. An outline of the steps: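 Steps: treat uninfected and HIV-1-infected human CEM cells at five drug levels; quantify growth by soluble formazan; retest any compound reaching 50% protection; classify actives from the retest.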

Where “and” joins values, the source holds several entries; their conditions need not be identical. Identical values can stand only once. Calls of active or inactive are those of the source.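 How the source made its calls: active means compounds giving half or more protection of infected cells from virus-caused growth loss, again on retest; inactive means the rest.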 *1 amine or outer side, *2 acyl side, *3 side chain or, on linkers, in order; H or OH if unused. Where a SMILES comes first, the peptide text is derived from it. Bridges are numbered along the chain shown (N, C = ends). [ ]: non-standard residue; d: D form. The star is where a group is joined. X22 = CC(C)C(C)C(C(=O)[*:2])N(C)[*:1]; Picolinoyl(3-OH) = O=C(c1ncccc1O)*; NMePhg = CN[CH](C(=O)O)c1ccccc1; Hyp = O=C(O)[CH]1C[CH](O)CN1; Sar = CNCC(=O)O

The values that follow come from PubChem BioAssay AID179 (DTP/NCI, 2004).

In the case of `CC(C)CC1NC(=O)C(NC(=O)c2ncccc2O)C(C)OC(=O)C(c2ccccc2)N(C)C(=O)C(C)NC(=O)C(C(C)C(C)C)N(C)C(=O)CN(C)C(=O)C2CC(O)CN2C1=O` (stereo not drawn) ({Picolinoyl(3-OH)}-TL[Hyp][Sar][X22]A[NMePhg]; ester 1-C; configuration not given here), the outcome was inactive.
For the molecule `CC(=O)OC12CC(C(F)(F)F)(C(F)(F)F)OC1(OC(C)=O)CC(C(F)(F)F)(C(F)(F)F)O2` (stereo not drawn), the result was inactive.
Consider `CCCS(=O)(=O)/C(=C(\c1ccc(Br)cc1)S(=O)(=O)CCC)c1ccc(Br)cc1`, for which the EC50 (usually the concentration that produces a half-maximal response) is greater than 2.63 µM and the IC50 (in general, the point on the concentration scale where inhibition reaches its midpoint) is greater than 2.63 µM.
On to `CCCCC=C(c1cc(Cl)c(OC)c(C(=O)OC)c1)c1cc(Cl)c(OC)c(C(=O)OC)c1`, for which the EC50 is greater than 5.62 µM and the IC50 is greater than 5.62 µM.
Regarding `O=c1c2cccnc2ncn1CCCN1CCCCC1`, the result was inactive.
On the same count and under the same terms, the result for `CC(C)CC(NC(=O)C(Cc1ccc(O)cc1)NC(=O)CNC(=O)C(N)CCC(=O)O)C(=O)NC(Cc1c[nH]c2ccccc12)C(=O)O` (stereo not drawn) (H-EGYLW-OH; configuration not given here) reads “inactive”; that for `N#Cc1sc2nc3c(c(-c4ccccc4)c2c1N)CCCC3`, “inactive”.
`O=C1C2CCCC3CCCC(C(=O)N1NC1CCCCC1)C32` (stereo not drawn): the EC50 was greater than 200 µM and the IC50 was 107 µM.
Turning to `CC(=O)NC1=NC(=O)/C(=C\c2cccc(Cl)c2Cl)N1C`, the EC50 is greater than 200 µM and the IC50 came to 81.3 µM.
As to `COC(=O)Nc1cn2ccsc2n1`, the outcome was inactive.
Regarding `C(CCCCc1nnc(N2CCOCC2)o1)CCCc1nnc(N2CCOCC2)o1`, the EC50 is greater than 200 µM and the IC50 was 107 µM.
Consider `CO/C(N)=C(\C#N)N=Cc1cccs1`, for which the EC50 was greater than 200 µM and the IC50 was 117 µM.
Regarding `C/C1=C/COC(=O)CC/C(C)=C/CC1`, the result was inactive.
`C[C@@H](NC(=O)c1ccccc1SC(=O)CCCC[n+]1ccccc1)C(N)=O`: the concentration for a half-maximal effect (EC50) is 0.741 µM and the IC50 stood at 105 µM.
In the case of `O=C(O)c1cccc(S(=O)(=O)c2ccccc2)c1`, the EC50 was greater than 200 µM and the IC50 is greater than 200 µM.
As to `Cc1nc2ccccc2c(=O)n1NC(=O)c1ccccn1`, the EC50 was greater than 200 µM and the IC50 was greater than 200 µM.
Turning to `O=C(O)C1C(C(=O)O)C2C3C4C1C1C2C3C41` (stereo not drawn), the outcome was inactive.
Regarding `Cc1ccc(NC(=O)CCC(=O)C2CC(=O)CCC2=O)cc1C` (stereo not drawn), the EC50 was greater than 794 µM and the IC50 was greater than 794 µM.
With `CC1=NN(C(=O)CC(=O)Nc2ccc(C)cc2)C(=O)C1N=Nc1ccc(C(=O)O)cc1` (stereo not drawn), the EC50 is greater than 200 µM and the IC50 was determined as 39.8 µM.
Take `O/N=C1\CN2CCC1CC2`: the result was inactive.
Take `COc1cc(C2C(C(=O)Nc3ccc(Cl)c(Cl)c3)=C(C)NC(C)=C2C(=O)Nc2ccc(Cl)c(Cl)c2)ccc1O`: the EC50 is greater than 22.4 µM and the IC50 came out at 12.6 µM.
`O=C1C(Cl)N(c2ccccc2)C1c1c[nH]c2ccccc12` (stereo not drawn): the EC50 is greater than 316 µM and the IC50 came out at 288 µM.
Regarding `COCN1C(=O)[C@@H]2CCCN2C(=O)c2cc(Cl)ccc21`, the EC50 is greater than 200 µM and the IC50 was greater than 200 µM.
As to `O=c1c(-c2ccccc2)c2oc(c1-c1ccccc1)CS(=O)(=O)CCC2`, the EC50 was greater than 97.7 µM and the IC50 amounted to 18.6 µM.
Regarding `CC(=O)OCC1OC(n2c(S)c(C#N)c(-c3ccccc3)c(C#N)c2=O)C(OC(C)=O)C(OC(C)=O)C1OC(C)=O` (stereo not drawn), the EC50 is greater than 200 µM; the IC50 is > 200 µM and 21.9 µM.
Turning to `S=c1nc[nH]c2nc[nH]c12`, the EC50 is greater than 234 µM and the IC50 was determined as 1.51 µM.
In the case of `NNc1nncc2[nH]cnc12`, the EC50 is greater than 200 µM and the IC50 was greater than 200 µM.
As to `S=c1[nH]c2ccccc2o1`, the EC50 is greater than 200 µM and the IC50 worked out at 166 µM.
In the case of `COC(=O)C(=O)C(C(=O)C(=O)Nc1ccccc1OC)c1nc2ccc([N+](=O)[O-])cc2[nH]c1=O` (stereo not drawn), the EC50 is greater than 537 µM and the IC50 turned out to be 95.5 µM.
`CCOC(=O)C1Oc2ccc([N+](=O)[O-])cc2C1(C)O` (stereo not drawn): the result was inactive.
As for `Cc1ccc2nc(NC(=S)NCCCCNC(=S)Nc3ccc4cc(C)ccc4n3)ccc2c1`, the EC50 was greater than 10.7 µM and the IC50 was greater than 10.7 µM.
For `COc1ccc2cc(C(=O)O)ccc2c1OC`, the EC50 is greater than 200 µM and the IC50 is greater than 200 µM.
Turning to `C=CC(=O)C#Cc1cnc(OC)nc1OC`, the EC50 is greater than 200 µM and the IC50 was determined as 1.1 µM.
Taken in the same sequence, the figures for `COc1ccc(N=NN2CCCC2)cc1` were greater than 200 µM and 15.5 µM.
With `Oc1ccc(O)c(Sc2nnc(CCCCCCCCc3nnc(Sc4cc(O)ccc4O)o3)o2)c1`, the result was inactive.
In the case of `COc1ccc(CN2CCCN(Cc3ccc(OC)cc3)C2c2ccccc2O)cc1`, the EC50 is greater than 200 µM and the IC50 was 50.1 µM.
Regarding `c1ccc(N=C(Nc2ccccc2)N2CCCC2)cc1`, the EC50 was greater than 200 µM and the IC50 worked out at 174 µM.
Consider `NCC(SSC(CN)C(=O)O)C(=O)O` (stereo not drawn), for which the EC50 was greater than 200 µM and the IC50 is greater than 200 µM.
`CC(=O)NC1CC2Oc3ccc(C)cc3C(C)(O2)C1O` (stereo not drawn): the outcome was inactive.
Take `OC(Cn1cncn1)(Cn1cncn1)c1ccc(Cl)cc1Cl`: the EC50 was greater than 741 µM and the IC50 came to 490 µM.
With `O=c1c2ccccc2[se]n1-c1ccc(Cl)cc1`, the concentration for a half-maximal effect (EC50) was 8.13 µM and the IC50 is 23.4 µM.
Take `C[N+](C)(C)CC1CCCC(C[N+](C)(C)C)C1=O` (stereo not drawn): the outcome was inactive.
With `N/N=C(\c1nc2ccc(Cl)cc2[nH]c1=O)C(O)c1ccc(Cl)c(Cl)c1` (stereo not drawn), the EC50 is greater than 245 µM and the IC50 turned out to be 20.4 µM.
Turning to `COC(=O)[C@@H](NC1(c2ccccc2)c2ccccc2-c2ccccc21)[C@H](OC(=O)[C@H]1CCCN1S(=O)(=O)c1ccccc1)C(=O)OC`, the EC50 is greater than 200 µM and the IC50 was determined as 9.33 µM.
Turning to `O=C(/C=C/C(=O)c1cccs1)c1cccs1`, the EC50 is greater than 20 µM and the IC50 was determined as 1.1 µM.
On the same counts, the results for `CCN(CC)CCOc1cccc(/C=C(\C#N)c2ccccc2)c1` are greater than 100 µM and 7.76 µM.
For `O=P(O)(CN1CCN(CP(=O)(O)c2ccccc2)CCN(CP(=O)(O)c2ccccc2)CC1)c1ccccc1`, the EC50 was greater than 200 µM and the half-inhibitory concentration (IC50) turned out to be 4.07 µM.
As to `CC1Oc2c(c(O)cc3oc(=O)cc(-c4ccccc4)c23)C(=O)C1C` (stereo not drawn), the outcome was inactive.
With `CC(C)OP(=O)(OC(C)C)/C(=N/N)NNc1ccc([N+](=O)[O-])cc1`, the EC50 is greater than 138 µM and the IC50 stood at 83.2 µM.
As for `NC1=Nc2ccccc2Sc2nnc(-c3ccc(Cl)cc3)n21`, the EC50 is greater than 200 µM and the IC50 is 115 µM.
On the same counts, the results for `c1ccc2c(c1)CCN1CCc3ccccc3C1C2` (stereo not drawn) are greater than 200 µM and 36.3 µM.
As to `CN1N(c2ccccc2)C(=O)C2=NC=C(C(=O)c3ccccc3)C(=N)C21C` (stereo not drawn), the EC50 was greater than 200 µM and the IC50 was greater than 200 µM.
As to `BrC1CCCCCC(Br)C12OCCO2` (stereo not drawn), the EC50 was greater than 57.5 µM and the IC50 was greater than 57.5 µM.
`CC(C)COC(=O)Sc1ccccc1C(=O)NC(C)C(N)=O` (stereo not drawn) came in with an EC50 of 1.1 µM and an IC50 of 115 µM.
In the case of `Cc1cc(S(=O)(=O)n2ccnc2Oc2ccc(N)cc2)c(SSc2cc(Cl)c(C)cc2S(=O)(=O)n2ccnc2Oc2ccc(N)cc2)cc1Cl`, the EC50 was greater than 100 µM and the IC50 worked out at 21.9 µM.
With `O=C(O)CCCC(=O)CCCC(=O)O`, the outcome was inactive.
As to `COc1cc(/C=C/C(=O)OCCc2ccccc2)ccc1O`, the EC50 was greater than 8.32 µM and the IC50 is 5.13 µM.
Taken in the same sequence, the figures for `O[C@@H]1[C@H]2CC(OCc3ccccc3)C[C@H]2C[C@@H]1O` (stereo partly drawn) were greater than 1000 µM and greater than 1000 µM.
On to `O=[N+]([O-])c1ccc(N=Nc2c(O)c(N=Nc3cc([N+](=O)[O-])cc([N+](=O)[O-])c3O)cc(N=Nc3cc(S(=O)(=O)O)cc4cc(S(=O)(=O)O)cc(O)c34)c2O)cc1`, for which the concentration giving a half-maximal response (EC50) is 16.6 µM and the half-inhibitory concentration (IC50) amounted to 50.1 µM.
Take `COP(=O)(OC)/C(=C/c1cnc[nH]1)NC=O`: the EC50 was greater than 200 µM and the IC50 is greater than 200 µM.
As to `COC(=O)/C=C1\CC(C)C2=C(N1)SCC2=O` (stereo not drawn), the EC50 is greater than 355 µM and the IC50 stood at 138 µM.
On to `CCC1C2CC3C4N(C)c5ccccc5C45CC(C2C5O)N3C1O` (stereo not drawn), for which the result was inactive.
For `Cc1nc(Nc2ccc(Cl)cc2Cl)sc1C(=O)Nc1ccccc1`, the EC50 was greater than 200 µM and the IC50 was determined as 117 µM.
Take `COc1ccc(N2C(=O)c3cc([N+](=O)[O-])cnc3S2(=O)=O)cc1`: the EC50 was greater than 200 µM and the half-maximal inhibitory concentration (IC50) is 28.2 µM.
`OCCO[P+]1(OCCO)n2c3ccc2C(c2ccccc2)=C2C=CC(=N2)C(c2ccccc2)=c2ccc(n21)=C(c1ccccc1)C1=NC(=C3c2ccccc2)C=C1`: the EC50 is greater than 0.2 µM and the half-inhibitory concentration (IC50) came to 0.0813 µM.
Regarding `Cc1ccc(C(N)=O)cc1N=NN(C)C`, the EC50 is greater than 457 µM and the IC50 was found to be 269 µM.
For the molecule `N#C/C(=C/NC(=S)Nc1ccc(Cl)c(Cl)c1)C(N)=O`, the EC50 is greater than 200 µM and the IC50 was determined as 38 µM.
On to `O=C1CCCC2=C1CC1=C(CCCC1=O)N2c1cccc2ccccc12`, for which the EC50 was 49 µM and the IC50 amounted to 174 µM.
With `N#CC12CCC1C1CCCCC12N1CCSCC1` (stereo not drawn), the result was inactive.
Regarding `CCCN(C)C(=O)COc1cc2c(O)c3c(O)c(C)c4c(c13)C(=O)C(C)(O/C=C/C(OC)C(C)C(OC(C)=O)C(C)C(O)C(C)C(O)C(C)/C=C/C=C(\C)C(=O)N2)O4` (stereo not drawn), the EC50 was greater than 200 µM and the IC50 is 18.6 µM.
`O=c1c2ccccc2[nH]c(=S)n1-c1ccc(Cl)cc1`: the EC50 is greater than 200 µM and the IC50 is greater than 200 µM.
In the case of `CCOC(=O)C1CCn2c(nc3c2c(=O)n(C)c(=O)n3C)S1` (stereo not drawn), the result was inactive.
Regarding `CCCCCCCC1=NN(c2ccc(S(=O)(=O)O)cc2)C(=O)C1N=O` (stereo not drawn), the EC50 was greater than 200 µM and the IC50 was greater than 200 µM.
